Key:
[1] = test system: Mean Arterial Blood Pressure in Anesthetized Rats; test: Effect on mean arterial blood pressure in anesthetized rats (intravenous); assay type: in vivo, rat (male Sprague-Dawley); conditions: for Hypotensive effect T 1/2: i.v., time to recover to half of maximal decrease
Protocol: Male Sprague-Dawley rats, aged 9-12 weeks, were anesthetized with urethane (1.4 g/kg i.p.). A polyethylene cannula filled with heparin solution was inserted into the femoral artery of the rats to measure mean blood pressure. Mean blood pressure was measured with a pressure transducer and recorded on a polygraph. The test compound dissolved in ethanol, polyethylene glycol and distilled water (1:1:2), were administered intraveneously in a volume of 0.25 ml/kg. Intravenous hypothypotensive effects of each compound were expressed as the maximal decrease (R max) and the half time (T 1/2). Briefly, R max was expressed as maximal % change compared to mean blood pressure prior to the administration of compound. T 1/2 was expressed as a time during which the hypotensive effect recovered to half of the maximal decrease.

[2] = test system: Mean Arterial Blood Pressure in Conscious Rats; test: Effect on mean arterial blood pressure in conscious rats (oral); assay type: in vivo, rat (male Sprague-Dawley); conditions: for Hypotensive effect T 1/2: time to recover to half of maximal decrease; for inhibition in vivo at 10 mg/kg / inhibition in vivo at 32 mg/kg: Rattus norvegicus, po, maximal % decrease of mean blood pressure, read-out: Hypotensive effect R max; for Hypotensive effect Dur.: time to recover to 5% of maximal decrease
Protocol: Male Sprague-Dawley rats, aged 9-11 weeks, were anesthetized with ether and a polyethylene cannula filled with heparin solution was inserted into the femoral artery of the rats to measure mean blood pressure. Mean blood pressure was measured with a pressure transducer and recorded on a polygraph. Two hours after operation, the drug suspended in 0.5% methyl cellulose was administered orally in a volume of 5 ml/kg. Oral hypotensive effects of each compound were expressed as the maximal decrease (R max), the half time (T 1/2) and the duration (Dur.). Briefly, R max was expressed as maximal % change compared to mean blood pressure prior to the administration of compound. T 1/2 was expressed as a time during which the hypotensive effect recovered to half of the maximal decrease. Duration was expressed as a time during which the hypotensive effect recovered to 5% of the maximal decrease.

[3] = Rattus norvegicus, iv, 0.32 mg/kg, maximal % decrease of mean blood pressure, read-out: Hypotensive effect R max
[4] = Rattus norvegicus, iv, 1.0 mg/kg, maximal % decrease of mean blood pressure, read-out: Hypotensive effect R max

Row | SMILES | inhibition in vivo at 0.32 mg/kg [1, 3] [%] | Hypotensive effect T 1/2 ([1]; 0.32 mg/kg) [min] | Hypotensive effect T 1/2 ([2]; 10 mg/kg) [min] | inhibition in vivo at 10 mg/kg ([2]; 10 mg/kg) [%] | Hypotensive effect Dur. ([2]; 10 mg/kg) [min] | also measured
1 | CCC(=CC(CNC(=O)Cc1cccnc1)=NO)C(C)[N+](=O)[O-] (centres unmarked) [Example 42, N-(4-Ethyl-2-hydroxyimino-5-nitro-3-hexen-1-yl)-3-pyridylacetamide] | 44.4 | 14.2 | – | – | – | –
2 | CCC(=CC(CNC(=O)c1cccnc1SC)=NO)C(C)[N+](=O)[O-] (single isomer, unassigned) [Example 31 A, N-(4-Ethyl-2-hydroxyimino-5-nitro-3-hexen-1-yl)-2-methylthio-3-pyridinecarboxamide] | 24.3 | – | 10.4 | 14.9 | – | –
3 | CCC(=CC(CNC(=O)c1cccnc1C)=NO)C(C)[N+](=O)[O-] (single isomer, unassigned) [Example 30 A, N-(4-Ethyl-2-hydroxyimino-5-nitro-3-hexen-1-yl)-2-methyl-3-pyridinecarboxamide] | 37.9 | 16.9 | 36.0 | 40.6 | 108.0 | Hypotensive effect Dur. ([2]; 32 mg/kg): 211.1 min; Hypotensive effect T 1/2 ([2]; 32 mg/kg): 56.2 min; inhibition in vivo at 32 mg/kg ([2]; 32 mg/kg): 39.3%
4 | COCC(C(C)=CC(CNC(=O)c1ccncc1)=NO)[N+](=O)[O-] (centres unmarked) [Example 22, N-(2-Hydroxyimino-6-methoxy-4-methyl-5-nitro-3-hexen-1-yl)-4-pyridinecarboxamide] | 17.7 | – | 29.9 | 19.2 | – | inhibition in vivo at 1 mg/kg [1, 4]: 35.9%; Hypotensive effect T 1/2 ([1]; 1.0 mg/kg): 24.9 min; Hypotensive effect T 1/2 ([2]; 32 mg/kg): 63.2 min; inhibition in vivo at 32 mg/kg ([2]; 32 mg/kg): 25.7%
5 | CCC(=CC(CNC(=O)c1nc[nH]c1C)=NO)C(C)[N+](=O)[O-] (single isomer, unassigned) [Example 45 A, N-(4-Ethyl-2-hydroxyimino-5-nitro-3-hexen-1-yl)-5-methy-4-imidazolecarboxamide] | 31.2 | 11.9 | 26.6 | 35.4 | 52.3 | –
6 | CCC(=CC(CNC(=O)c1ccc(C)nc1)=NO)C(C)[N+](=O)[O-] (centres unmarked) [Example 35, N-(4-Ethyl-2-hydroxyimino-5-nitro-3-hexen-1-yl)-6-methyl-3-pyridinecarboxamide] | 41.7 | 13.7 | 24.1 | 31.1 | – | –
7 | CCC(=CC(CNC(=O)c1cccnc1Cl)=NO)C(C)[N+](=O)[O-] (centres unmarked) [Example 32, N-(4-Ethyl-2-hydroxyimino-5-nitro-3-hexen-1-yl)-2-chloro-3-pyridinecarboxamide] | 42.5 | 13.6 | 19.6 | 43.2 | 50.9 | –
8 | CCC(=CC(CNC(C)=O)=NO)C(CC)[N+](=O)[O-] (centres unmarked) [Example 24, 1Acetylamino-4-ethyl-2-hydroxyimino-5-nitro-3-heptene] | 31.8 | 13.6 | 16.6 | 40.7 | – | –
9 | CCC(C(C)=CC(CNC(=O)c1cccnc1)=NO)[N+](=O)[O-] (single isomer, unassigned) [Example 18 B, N-(2-hydroxyimino-4-methyl-5-nitro-3-hepten-1-yl)-3-pyridinecarboxamide] | – | – | 26.4 | – | 54.7 | Hypotensive effect T 1/2 ([1]; 1.0 mg/kg): 20.2 min; Hypotensive effect Dur. ([2]; 32 mg/kg): 97.2 min; Hypotensive effect T 1/2 ([2]; 32 mg/kg): 56.1 min
10 | CCC(=CC(CNC(=O)c1cccnc1)=NO)C(CC)[N+](=O)[O-] (single isomer, unassigned) [Example 25 B, N-(4-Ethyl-2-hydroxyimino-5-nitro-3-hepten-1-yl)-3-pyridinecarboxamide] | – | – | 14.6 | – | – | –
11 | CCC(=CC(CNC(=O)c1cccnc1C)=NO)C(C)[N+](=O)[O-] (single isomer, unassigned) [Example 30 B, N-(4-Ethyl-2-hydroxyimino-5-nitro-3-hexen-1-yl)-2-methyl-3-pyridinecarboxamide] | – | 13.0 | 20.9 | – | – | –
12 | CCC(=CC(CNC(=O)c1cccnc1O)=NO)C(C)[N+](=O)[O-] (single isomer, unassigned) [Example 33 A, N-(4-Ethyl-2-hydroxyimino-5-nitro-3-hexen-1-yl)-2-hydroxy-3-pyridinecarboxamide] | 20.9 | 11.9 | 18.3 | 23.1 | – | –
13 | CCC(=CC(CNC(=O)c1cnccc1C(N)=O)=NO)C(C)[N+](=O)[O-] (centres unmarked) [Example 28, 3-[N-(4-Ethyl-2-hydroxyimino-5-nitro-3-hexen-1-yl)-carbamoyl]-4-pyridinecarboxamide] | 22.2 | – | – | – | – | inhibition in vivo at 1 mg/kg [1, 4]: 31.4%; Hypotensive effect T 1/2 ([1]; 1.0 mg/kg): 11.9 min
14 | CC(=CC(CNC(=O)c1cccnc1)=NO)C(C)[N+](=O)[O-] (single isomer, unassigned) [Example 19 A, N-(2-Hydroxyimino-4-methyl-5-nitro-3-hexen-1-yl)-3-pyridinecarboxamide] | 40.3 | 12.6 | – | – | – | –
15 | CCC(=CC(CNC(=O)C(N)=O)=NO)C(C)[N+](=O)[O-] (centres unmarked) [Example 40 A] | – | – | 25.2 | 47.8 | 71.1 | –
16 | CCC(=CC(CNC(=O)c1sc(C)nc1C)=NO)C(C)[N+](=O)[O-] (centres unmarked) [Example 43, N-(4-Ethyl-2-hydroxyimino-5-nitro-3-hexen-1-yl)-2,4-dimethylthiazole-5-carboxamide] | 53.1 | – | – | – | – | –
17 | CC(=CC(CNC(=O)c1cccnc1)=NO)C(C)[N+](=O)[O-] (single isomer, unassigned) [Example 19 B, N-(2-Hydroxyimino-4-methyl-5-nitro-3-hexen-1-yl)-3-pyridinecarboxamide] | – | 11.0 | – | – | – | –
18 | CCC(=CC(CNC(=O)c1ccncc1)=NO)C(C)[N+](=O)[O-] (centres unmarked) [Example 29, N-(4-Ethyl-2-hydroxyimino-5-nitro-3-hexen-1-yl)-4-pyridinecarboxamide] | 35 | 12.3 | 23.5 | 31.4 | 72.5 | Hypotensive effect Dur. ([2]; 32 mg/kg): > 300 min; Hypotensive effect T 1/2 ([2]; 32 mg/kg): 165 min; inhibition in vivo at 32 mg/kg ([2]; 32 mg/kg): 37.1%
19 | CCC(C(C)=CC(CNC(=O)c1cccnc1)=NO)[N+](=O)[O-] (single isomer, unassigned) [Example 18 A, N-(2-hydroxyimino-4-methyl-5-nitro-3-hepten-1-yl)-3-pyridinecarboxamide] | 10.2 | – | 40.1 | 25.7 | 57.0 | inhibition in vivo at 1 mg/kg [1, 4]: 33.6%; Hypotensive effect T 1/2 ([1]; 1.0 mg/kg): 31.5 min; Hypotensive effect Dur. ([2]; 32 mg/kg): 156.4 min; Hypotensive effect T 1/2 ([2]; 32 mg/kg): 88.7 min; inhibition in vivo at 32 mg/kg ([2]; 32 mg/kg): 46.9%
20 | CC(C)C(=CC(CNC(=O)c1cccnc1)=NO)C(C)[N+](=O)[O-] (centres unmarked) [Example 20, N-(2-Hydroxyimino-4-isopropyl-5-nitro-3-hexen-1-yl)-3-pyridinecarboxamide] | 3.8 | – | 28.5 | 20.1 | – | inhibition in vivo at 3.2 mg/kg ([1]; Rattus norvegicus, iv, 3.2 mg/kg, maximal % decrease of mean blood pressure, read-out: Hypotensive effect R max): 48.4%; Hypotensive effect T 1/2 ([1]; 3.2 mg/kg): 20.1 min
21 | CCC(=CC(CNC(=O)c1cccnc1)=NO)C(CC)[N+](=O)[O-] (single isomer, unassigned) [Example 25 A, N-(4-Ethyl-2-hydroxyimino-5-nitro-3-hepten-1-yl)-3-pyridinecarboxamide] | 24.1 | 13.1 | 22.5 | – | – | Hypotensive effect T 1/2 ([2]; 32 mg/kg): 56.7 min; inhibition in vivo at 32 mg/kg ([2]; 32 mg/kg): 26%
22 | CCC(=CC(CNC(=O)C(N)=O)=NO)C(C)[N+](=O)[O-] (centres unmarked) [Example 40] | 52.3 | 11.3 | – | – | – | –

— patent US5691366A, “Nitro compounds, process for preparation thereof and use thereof” (Fujisawa Pharmaceutical Co., Ltd., priority 1991, dated 1997)
